PMC7382501 (Nature Communications, 2020)

Tests used:
[1] = tested on: Mtb FasR; conditions: ref Mondino et al Mol Microbiol 2013 89:372; cited from earlier work
[2] = target: FasRwt (Mycobacterium tuberculosis, UniProt O05858)
Chain of FasRwt (O05858 whole entry): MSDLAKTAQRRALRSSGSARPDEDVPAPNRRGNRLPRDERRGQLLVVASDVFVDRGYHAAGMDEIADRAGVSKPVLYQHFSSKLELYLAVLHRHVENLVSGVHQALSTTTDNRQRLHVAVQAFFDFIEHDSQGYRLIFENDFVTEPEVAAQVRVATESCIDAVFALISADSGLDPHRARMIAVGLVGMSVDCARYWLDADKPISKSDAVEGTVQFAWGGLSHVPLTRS

SMILES	triggering of DNA-dissociation [1]	k, exponential decay rate of full-length FasR under trypsin proteolysis [2]
CCCCCCCCCCCCCC(=O)O [C14, myristic acid]	ineffective at triggering DNA-dissociation	–
CCCCCCCCCCCCCCCCCCCC(=O)SCCNC(=O)CCNC(=O)[C@H](O)C(C)(C)COP(=O)(O)OP(=O)(O)OC[C@H]1O[C@@H](n2cnc3c(N)ncnc32)[C@H](O)[C@@H]1OP(=O)(O)O [C20-CoA, arachidoyl-CoA]	–	0.11
